How the values were obtained:
[1] = system: Y2300 OE ScCYP51; experiment: MIC80 determination, strain Y2300; format: cell-based, S. cerevisiae; conditions: Saccharomyces cerevisiae
Procedure: (§1) Cells were seeded at an OD600 nm of 0.005 (1.5 × 10^4 CFU), and the plates were incubated at 30 °C with shaking at 200 rpm for 48 h for S. cerevisiae strains and 24 h for C. albicans . Cell growth was assessed by measuring the OD600 nm using a Synergy 2 multimode plate reader (BioTek Instruments, VT, USA). Each MIC80 was determined using triplicate measurements for pools of 4 clones of each strain in three separate experiments.

[2] = system: Y2513 OE ScCYP51 Y140H; experiment: MIC80 determination, strain Y2513; format: cell-based, S. cerevisiae; conditions: Saccharomyces cerevisiae
Procedure: as §1

[3] = system: Y525 OE CaMDR1a; experiment: MIC80 determination, strain Y525; format: cell-based, S. cerevisiae
Procedure: as §1

[4] = system: Y1; experiment: MIC80 determination, C. albicans clinical isolate Y1; format: cell-based; conditions: Candida albicans, pH 7, 24 h
Procedure: as §1

[5] = system: Y611 FHB3; experiment: MIC80 determination, C. albicans clinical isolate Y611 FHB3; format: cell-based; conditions: Candida albicans, 24 h, pH 7
Procedure: as §1

[6] = system: Y2716 OE CpCYP51 Y132F; experiment: MIC80 determination, strain Y2716; format: cell-based, S. cerevisiae
Procedure: as §1

[7] = system: Y433 OE CgCDR1; experiment: MIC80 determination, strain Y433; format: cell-based, S. cerevisiae; conditions: Saccharomyces cerevisiae
Procedure: as §1

[8] = system: Y2767 OE CauCYP51; experiment: MIC80 determination, strain Y2767; format: cell-based, S. cerevisiae
Procedure: as §1

[9] = system: Y2769 OE CauCYP51 K143R; experiment: MIC80 determination, strain Y2769; format: cell-based, S. cerevisiae
Procedure: as §1

[10] = system: Y2649 OE CYP51 F1 RaCPR; experiment: MIC80 determination, strain Y2649; format: cell-based, S. cerevisiae
Procedure: as §1

[11] = system: Y2301 ScCYP51 Y140F mutant; experiment: Agarose (disk) diffusion assay, strain Y2301; format: cell-based, S. cerevisiae; conditions: 10 nmol/disk, 30 °C, 48 h
Outline: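 Recombinant S. cerevisiae strains seeded at OD600 0.008 in CSM agarose overlay (0.6%, pH 6.8–7) on SD agarose. Racemic compounds applied at 10 nmol/disk on paper disks. Growth-inhibition zones assessed after 48 h at 30 °C.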

[12] = system: Y570 ABC efflux pump CaCDR1B overexpressed; experiment: Agarose (disk) diffusion assay, strain Y570; format: cell-based, S. cerevisiae; conditions: 10 nmol/disk, 30 °C, 48 h
Description: Final compounds were screened as racemic mixtures using agarose diffusion assays to visualize their inhibitory activity against a panel of recombinant S. cerevisiae strains i.e., S. cerevisiae strains expressing control levels of wild-type CYP51 (ScCYP51), overexpressed wild-type ScCYP51, overexpressed azole-resistant ScCYP51 Y140F/H mutations and overexpressed C. albicans efflux pumps MDR1a or CDR1B (Figure and Table S1).
The susceptibilities of S. cerevisiae and Candida species strains to azole compounds were observed as zones of growth inhibition in agarose diffusion assays. The disk diffusion assays were carried out as described by Keniya et al. Complete supplement mixture (CSM) agarose (0.6% agarose [wt/vol]; 20 mL of synthetic defined medium (SD); pH 6.8–7) was solidified in a rectangular Petri dish which was overlaid with CSM agarose (0.6% [wt/vol]; 5 mL; pH 6.8–7) seeded with yeast cells at an optical density (OD600) of 0.008 (118,000 cells per 1 mL of overlay). Azole compounds (10 nmol/disk) were applied to sterile BBL paper disks (Becton Dickinson Co., Sparks, MD) and placed on solidified overlays. Cell growth was assessed after incubation at 30 °C for 48 h.

[13] = molecular target: wild-type CaCYP51 (Candida albicans, UniProt P10613); experiment: Reconstituted CYP51 activity assay, wild type; format: biochemical, C. albicans; conditions: 1 μM CaCyp51, 50 μM lanosterol; duplicate, mean ± SD
Chain of wild-type CaCYP51 (P10613 whole entry): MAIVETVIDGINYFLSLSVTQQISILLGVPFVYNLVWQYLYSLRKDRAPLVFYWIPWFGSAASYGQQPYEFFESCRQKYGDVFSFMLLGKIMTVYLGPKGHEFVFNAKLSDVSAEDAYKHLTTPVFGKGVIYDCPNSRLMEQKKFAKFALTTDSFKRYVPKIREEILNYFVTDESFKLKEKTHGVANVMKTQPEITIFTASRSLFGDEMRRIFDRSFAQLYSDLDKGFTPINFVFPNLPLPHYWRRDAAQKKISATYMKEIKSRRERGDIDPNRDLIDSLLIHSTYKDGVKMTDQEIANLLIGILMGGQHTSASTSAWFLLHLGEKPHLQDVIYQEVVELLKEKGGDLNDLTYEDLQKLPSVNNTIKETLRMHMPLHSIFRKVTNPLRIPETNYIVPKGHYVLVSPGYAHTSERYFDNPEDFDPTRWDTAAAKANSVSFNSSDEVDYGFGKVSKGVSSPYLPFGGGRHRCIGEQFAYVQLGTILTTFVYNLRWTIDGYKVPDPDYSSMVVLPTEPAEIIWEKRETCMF
Procedure: The reconstituted CYP51 assay previously described contained 1 μM CaCyp51, 2 μM Homo sapiens cytochrome P450 reductase and 50 μM lanosterol in a final volume of 500 μL. After the addition of azole in DMSO (2.5 μL), reactions were incubated at 37 °C for 10 min prior to initiation by the addition of 100 μL 20 mM β-NADPH-Na4. Sterol substrates and products were extracted with ethyl acetate, derivatized with N,O-bis(trimethylsilyl)-trifluoroacetamide (BSTFA)–trimethylchlorosilane (TMCS) (99:1) in the presence of anhydrous pyridine, and analyzed by GC/MS as described previously. IC50 determinations were performed in duplicate. Nonlinear regression of inhibitor concentration vs normalized response was calculated by GraphPad Prism 10.4.0 for Windows (GraphPad Software, Boston, Massachusetts, USA, www.graphpad.com).

[14] = molecular target: CYP1A2 (Homo sapiens, UniProt P05177); experiment: CYP IC50 profile, CYP1A2; format: biochemical; conditions: human liver drug metabolizing enzyme; read-out: CYP IC50 1A2
Chain of CYP1A2 (P05177 whole entry): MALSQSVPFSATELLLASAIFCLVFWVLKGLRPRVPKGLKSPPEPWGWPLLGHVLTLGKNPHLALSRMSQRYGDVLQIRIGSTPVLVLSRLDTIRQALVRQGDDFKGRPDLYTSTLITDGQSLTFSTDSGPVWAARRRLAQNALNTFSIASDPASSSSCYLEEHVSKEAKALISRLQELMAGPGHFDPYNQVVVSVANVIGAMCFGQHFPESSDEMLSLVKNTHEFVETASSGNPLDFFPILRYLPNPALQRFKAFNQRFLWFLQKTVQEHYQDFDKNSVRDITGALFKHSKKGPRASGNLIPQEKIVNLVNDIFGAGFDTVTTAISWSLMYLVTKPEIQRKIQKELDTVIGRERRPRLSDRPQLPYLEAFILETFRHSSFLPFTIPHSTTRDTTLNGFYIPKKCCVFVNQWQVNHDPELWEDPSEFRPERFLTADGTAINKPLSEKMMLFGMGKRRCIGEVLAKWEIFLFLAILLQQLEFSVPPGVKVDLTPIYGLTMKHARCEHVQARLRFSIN

[15] = molecular target: CYP2C9 (Homo sapiens, UniProt P11712); experiment: CYP IC50 profile, CYP2C9; format: biochemical; conditions: human liver drug metabolizing enzyme; read-out: CYP IC50 2C9
Chain of CYP2C9 (P11712 whole entry): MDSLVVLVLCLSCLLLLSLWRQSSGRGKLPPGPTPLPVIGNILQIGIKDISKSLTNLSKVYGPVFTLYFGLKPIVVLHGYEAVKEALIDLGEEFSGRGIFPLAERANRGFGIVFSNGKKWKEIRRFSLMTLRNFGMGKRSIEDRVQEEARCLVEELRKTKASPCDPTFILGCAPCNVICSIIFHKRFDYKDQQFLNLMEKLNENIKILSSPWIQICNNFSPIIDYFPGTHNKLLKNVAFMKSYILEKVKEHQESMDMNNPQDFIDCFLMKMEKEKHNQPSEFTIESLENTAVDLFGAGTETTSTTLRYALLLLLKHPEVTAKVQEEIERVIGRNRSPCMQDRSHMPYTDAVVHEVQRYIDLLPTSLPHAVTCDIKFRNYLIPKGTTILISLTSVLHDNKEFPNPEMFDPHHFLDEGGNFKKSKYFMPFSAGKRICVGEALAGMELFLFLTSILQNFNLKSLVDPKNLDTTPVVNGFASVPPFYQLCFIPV

[16] = system: MCF-10A cells; experiment: Viability (CellTiter Blue) assay; format: cell-based, human; conditions: 48 h, 10 μM to 1 pM
Procedure: Human epithelial breast cells, MCF-10A, were routinely cultured in DMEM/F-12 (Fisher Scientific, Loughborough, UK) containing 5% heat-inactivated horse serum (ThermoFisher Scientific, UK), 20 ng/mL hEGF (Merck Life Science, Dorset, UK), 500 ng/mL hydrocortisone (Merck Life Science, Dorset, UK) and 10 μg/mL insulin (Merck Life Science, Dorset, UK) under tissue culture conditions (37 °C, 5% CO2 in a humidified incubator). Cells were passaged upon reaching confluency using 0.25% Trypsin/EDTA (Fisher Scientific, Loughborough, UK) for a maximum of 15 passages from defrosting. […].
Cells were seeded in 100 μL of complete medium per well in a black, flat-bottomed, 96-well tissue-culture-treated plate (Fisher Scientific, Loughborough, UK) at a density of 4000 cells/well and incubated under tissue culture conditions for 24 h. Cells were then treated by mixing in an additional 100 μL of drug/diluent control in complete medium to give final concentrations of 10 μM–1 pM. DMSO was used as a vehicle control, and as a positive toxic control, staurosporine was added at a final concentration of 10 μM. Cells were then incubated for 48 h under tissue culture conditions before the treatments were replaced with fresh media before performing the CellTiter Blue assay (Promega, Southampton, UK) was performed following the manufacturer's instructions. […]

## O=C(NCC(O)(Cn1cncn1)c1ccc(F)cc1F)c1ccc(-c2ccc(OC(F)(F)F)cc2)cc1 (centres unmarked) [Compound 22, N-(2-(2,4-Difluorophenyl)-2-hydroxy-3-(1H-1,2,4-triazol-1-yl)propyl)-4’-(trifluoromethoxy)-[1,1’-biphenyl]-4-carboxamide]
[1]; 48 h, pH 6.8
  MIC80: 0.114 ± 0.014 µM
[1]; read-out: MIC (nM) S. cerevisiae Y2300
  MIC: 114 ± 14 nM
[2]; 48 h, pH 6.8
  MIC80: 0.078 ± 0.056 µM
[2]; read-out: MIC (nM) S. cerevisiae Y2513
  MIC: 78 ± 56 nM
[3]; Saccharomyces cerevisiae, 48 h, pH 6.8
  MIC80: 0.451 µM
[3]; read-out: MIC (nM) C. albicans model Y525
  MIC: 451 nM
[4]
  MIC80: 0.067 µM
[5]
  MIC80: 1.65 µM
[6]; MIC80 Y2716 versus Y2721
  increase in resistance owing to the CpCYP51 Y132F mutation: 2 fold
[6]; Saccharomyces cerevisiae
  MIC80: 0.21 ± 0.043 µM
[7]
  MIC80: 5.85 µM
[8]; Candidozyma auris, read-out: MIC (nM) C. auris model Y2767
  MIC: 110 ± 10 nM
[8]; Saccharomyces cerevisiae
  MIC80: 0.11 ± 0.01 µM
[9]; Candidozyma auris, read-out: MIC (nM) C. auris model Y2769
  MIC: 225 ± 33 nM
[9]; Saccharomyces cerevisiae
  MIC80: 0.225 ± 0.033 µM
[10]; Rhizopus arrhizus, read-out: MIC (nM) R. arrhizus model Y2649
  MIC: 470 ± 240 nM
[10]; Saccharomyces cerevisiae
  MIC80: 0.47 ± 0.24 µM
[11]
  zone of growth inhibition (inhibitory activity in words): unaffected inhibition zone size
[12]
  zone of growth inhibition (inhibitory activity in words): conferred resistance
[13]
  IC50: 669 nM
[14]
  IC50: 9.33 ± 1.39 µM
[15]
  IC50: > 25 µM
[16]
  cell viability (tolerance in words): very well tolerated

Reference: paper PMC12169614, “Exploring Long Arm Amide-Linked Side Chains in the Design of Antifungal Azole Inhibitors of Sterol 14α-Demethylase (CYP51)” (Journal of Medicinal Chemistry, 2025)
